{"source": "patent US20170246586A1", "about": "“PROCESS AND APPARATUS FOR SEPARATING ENTRAINED AMINES FROM A GAS STREAM” (Carbonoro B.V., priority 2014, published 2017)", "key": {"[1]": {"conditions": "J. Sangster, J. Phys. Chem. Ref. Data 18, 111, 1989; cited from earlier work"}, "[2]": {"experiment": "amine content of the aqueous phase after phase separation of heated MCA/DMCA mixture in water", "type": "physicochemical", "conditions": "3 M MCA:DMCA 1:3 wt./wt. in water, phases separated", "protocol": "Aqueous samples containing MCA and/or DMCA were analysed by UPLC-MS/MS. The UPLC apparatus was a Waters ACQUITY° system. Injection volume was 3 μl. Mobile phase A: 10 mM ammonium acetate, 0.1 wt. % formic acid in water. Mobile phase B: methanol. Column: ACQUITY UPLC® HSB T3, 1.8 μ2.1×50 mm. Column temperature: 30° C. Gradient (Table 1). The mass spectrometer was an AB SCIEX™ API 3200 apparatus.\nA mixture (200 ml) of MCA and DMCA (total amine concentration is 3 M; ratio MCA:DMCA is 1:3 wt./wt.≈1:2.67 mol/mol; total absolute amount MCA is 92.8 g/l; total amount of DMCA is 278.4 g/l) in water was heated at various temperatures for 24 h during which phase separation occurred. The phases were separated and the aqueous phase was analysed for determining the amine content. As can be observed from the data in Table 9, the amount of amine decreases with increasing temperature."}, "[3]": {"conditions": "20° C.; cited from earlier work"}, "[4]": {"experiment": "Water solubility (20° C.)", "type": "physicochemical"}}}
{"smiles": "NC1CCCCC1", "note": "[cyclohexylamine]", "values": [{"measurement": "measured log P", "setting": "[1]", "result": "1.49±0.10"}]}
{"smiles": "CNC1CCCCC1", "note": "[MCA, N-methylcyclohexylamine]", "values": [{"measurement": "amine content of aqueous phase (MCA)", "setting": "[2]; heated 24 h at 40 ° C.", "result": 6940, "unit": "mg/L"}, {"measurement": "amine content of aqueous phase (MCA)", "setting": "[2]; heated 24 h at 50 ° C.", "result": 5630, "unit": "mg/L"}, {"measurement": "amine content of aqueous phase (MCA)", "setting": "[2]; heated 24 h at 60 ° C.", "result": 5090, "unit": "mg/L"}, {"measurement": "amine content of aqueous phase (MCA)", "setting": "[2]; heated 24 h at 70 ° C.", "result": 4520, "unit": "mg/L"}]}
{"smiles": "CN(C)C1CCCCC1", "note": "[DMCA, N,N-dimethylcyclohexylamine]", "values": [{"measurement": "Water solubility", "setting": "[3]", "result": 54, "unit": "mg/mL"}, {"measurement": "solubility", "setting": "[4]", "result": "~480", "unit": "mM"}]}
